Measurements reported in US4490529A, “Cysteic acid and homocysteic acid analogues of methotrexate and aminopterin” (Dana-Farber Cancer Institute, Inc., priority 1983, dated 1984).

Assay: Solubility in water and precipitation behaviour
Format: physicochemical
Procedure: 4-Amino-4-deoxy-N^10 -methylpteroic acid dihydrate (720 mg, 2.0 mmoles) is added in small portions to a stirred solution of diethylphosphorocyanidate (915 mg, 5 mmoles) and triethylamine (500 mg, 5 mmoles) in N,N-dimethylformamide (DMF) (75 ml) previously dried over Linde 4A molecular sieves. The solution is stirred at room temperature overnight, and an extra 25% of diethyl phosphorocyanidate and Et3 N is added. TLC (silica gel, 4:1 chloroform-methanol) indicates the formation of the activated intermediate to be complete. The silylated D,L-homocysteic acid triethylammonium salt (1.8 g, 4 mmoles) is then added, and the reaction mixture is stirred at room temperature for 44 hours. After addition of a few milliliters of water, the solvent is removed with the aid of a rotary evaporator and the residue is dissolved in 3 percent ammonium bicarbonate, with a few drops of concentrated ammonia being added as needed. […] The solution is taken up in a minimum of H2 O with just enough Nh4 OH added to dissolve all the solid, and the solution is applied to a DEAE-cellulose column that has been pre-equilibrated with 3 percent ammonium bicarbonate and then washed to neutrality with H2 O. The column is eluted with a large volume of H2 O, and then again with 3% NH4 HCO3. […] Individual 5-10 ml volumes of the NH4 HCO3 eluate are monitored by TLC. […]

SMILES: CN(Cc1cnc2nc(N)nc(N)c2n1)c1ccc(C(=O)NC(CCS(=O)(=O)O)C(=O)O)cc1 (racemic) [mAPA-D,L-HCysA, N-(4-Amino-4-deoxy-N^10-methylpteroyl)-D,L-homocysteic acid]
- solubility in water: very soluble in water
- precipitation from basic solution (adjustment of the pH to 6, in contrast to methotrexate): cannot be precipitated from basic solution on adjustment of the pH to 6
